Reference: article PMC12679539, “Synthesis and evaluation of nitroheterocyclic aromatic adamantane amides with trypanocidal activity. Part II” (RSC Medicinal Chemistry, 2025)

How the values were obtained:
[1] = test system: bloodstream-form Trypanosoma brucei; test: Activity against bloodstream-form Trypanosoma brucei (Alamar Blue growth inhibition); type: cell-based, Trypanosoma brucei (strain 427); conditions: for IC50 / IC90: Trypanosoma brucei, bloodstream form; for IC50: concentration that inhibits growth by 50%, read-out: T. brucei IC50; for IC90: concentration that inhibits growth by 90%, read-out: T. brucei IC90; for S.I. (selectivity index): ratio of IC50 values obtained with L6 cells and T. brucei
Procedure: (§1) Bloodstream form T. brucei (strain 427) were cultured at 37 °C in modified Iscove's medium. Trypanocidal activity was assessed by growing parasites in microtiter plates in the presence of various drug concentrations. […] The plates were incubated for 48 hours at 37 °C and 20 μL Alamar Blue was then added to each well. After an additional overnight incubation, the fluorescence was determined using a Gemini fluorescent plate reader (Molecular Devices). Inhibition of growth was calculated by comparison with control values and IC50 and IC90 values were determined in triplicate using linear regression analysis.

[2] = test system: L6 cells; test: Cytotoxic activity against rat skeletal myoblast L6 cells (Alamar Blue); type: cell-based; conditions: 120 h, cytotoxicity, 5 days
Procedure: The cytotoxicity against mammalian cells was assessed using microtitre plates. Briefly, L6 cells (a rat skeletal muscle line) were seeded at 1 × 10^4 mL^−1 in 200 μL of RPMI-1640 growth medium (with 10% fetal calf serum) containing 7 different compound concentrations in a range previously established to encompass both the IC50 and IC90 values. The plates were incubated for 5 days at 37 °C and 20 μL Alamar Blue (Biosource Ltd, Wilton, North Yorkshire England.) was then added to each well. After an additional 8 hours incubation, the fluorescence was determined using a Gemini fluorescent plate reader (Molecular Devices). Inhibition of growth was calculated by comparison with control values and IC50 and IC90 values were determined in triplicate using linear regression analysis.

[3] = test system: T. cruzi epimastigotes; test: Activity against Trypanosoma cruzi epimastigotes (Alamar Blue growth inhibition); type: cell-based, Trypanosoma cruzi (strain CL Brener); conditions: CL Brener
Procedure: as §1, with “Trypanocidal” for “Bloodstream form T. brucei (strain 427) were cultured at 37 °C in modified Iscove's medium. Trypanocidal”, “4 days” for “48 hours”, “28” for “37”, “Blue (Biosource UK Ltd)” for “Blue”, “3 days” for “overnight”

[4] = test system: L. infantum intracellular amastigotes; test: Activity against intracellular L. infantum amastigotes in THP-1 derived macrophages (luciferase); type: cell-based, Leishmania infantum (MHOM/MA/67/ITMAP-263); conditions: Leishmania infantum; for inhibition at 10 µM: THP-1, 72 h, read-out: L. infantum (intracellular amastigotes) % of growth inhibition at 10 μM ± ST DEV
Procedure: Leishmania infantum Luciferase-expressing L. infantum (strain MHOM/MA/67/ITMAP-263) axenic amastigotes were cultured in MAA/20 medium at 37 °C with 5% CO2, as described by Sereno et al. 1998.[26] The parasites were maintained in 5 mL T25 ventilated flasks and subcultured every seven days at a concentration of 1 × 10^6 cells per mL.
The activity against intracellular amastigotes of L. infantum was evaluated using a modified method described by Santarem, Tavares, and Cordeiro-da-Silva (2019).[27] THP-1 cells were differentiated into macrophages using PMA, as previously outlined. The differentiated macrophages were then infected with L. infantum axenic amastigotes expressing episomal luciferase at a macrophage-to-amastigote ratio of 1 : 10 for four hours at 37 °C in a 5% CO2 atmosphere. After this incubation, non-internalized parasites were washed away, and various concentrations of test compounds were added in a final volume of 100 μL. A dose–response curve for miltefosine was included in all assays to serve as a quality control. Each experimental condition was tested in quadruplicate. After 72 hours of incubation, the medium was replaced with 100 μL of PBS, and 25 μL of Glo-lysis buffer from the Steady-Glo Luciferase Assay System (Promega, Madison, WI, USA) was added. The plates were then agitated at 100 rpm for 10 minutes at room temperature. Following this, 30 μL of the Steady-Glo reagent (Promega, Madison, WI, USA) was added, and the mixture was incubated for 15 minutes in the dark under the same conditions. A total of 140 μL from each well was transferred to white-bottom 96-well plates, and luminescence intensity was measured using a Synergy 2 Multi-Mode Reader (Biotek, Winooski, VT, USA). The antileishmanial effect was assessed by comparing the results with those from non-treated infected cells. The IC50 value were determined through non-linear regression analysis using GraphPad Prism version 8.1.1 for Windows (GraphPad Software, San Diego, CA, USA). Results represent the average of at least three independent experiments.

[5] = Cytotoxicity on THP-1-derived macrophages (MTT assay); type: cell-based; conditions: human, THP-1-derived macrophages (PMA-differentiated), value or interval
Procedure: The THP-1 cell line, a human leukemia line (ATCC® TIB-202™), was cultured in RPMI-1640 medium supplemented with 10% heat-inactivated fetal bovine serum (FBS), 2 mM. L-Glutamine, 100 IU mL^−1 penicillin/streptomycin, and 20 mM HEPES. The cells were maintained in a humidified incubator at 37 °C with 5% CO2. Subculturing was performed every three days, using 20 mL of media at a concentration of 2 × 10^5 cells per mL in a T75 flask. All cell culture reagents were purchased from Lonza Bioscience (Morrisville, NC).
The cytotoxicity of the compounds on THP-1-derived macrophages was evaluated using the colorimetric MTT assay (3-(4,5-dimethylthiazol-2-yl)-2,5-diphenyltetrazolium bromide), as described in Magoulas et al. (2021).[28] THP-1 cells were suspended in complete RPMI medium at a density of 1 × 10^6 cells per mL, and 100 μL of this suspension was seeded into each well of a 96-well plate. The cells were differentiated into macrophages by adding 40 ng mL^−1 of phorbol-myristate 13-acetate (PMA, Sigma, Saint Louis, MI, USA) for 24 hours, followed by replacement with fresh medium for an additional 24 hours. Subsequently, the cells were incubated with 100 μL of various compounds, diluted in complete RPMI medium, at concentrations ranging from 100 to 12.5 μM. Each condition was tested in triplicate. After 72 hours of incubation at 37 °C with 5% CO2, the medium was removed, and 200 μL of a 0.5 mg mL^−1 MTT solution, diluted in RPMI, was added to each well. The plates were incubated for an additional 4 hours. Following this incubation, 160 μL of the medium was removed and replaced with 160 μL of 2-propanol. Absorbance was measured at 570 nm using a Synergy 2 Multi-Mode Reader (Biotek, Winooski, VT, USA). Cytotoxicity was determined by presenting the CC50 (the concentration of the drug that reduces cell viability by 50%) interval or by calculating the CC50 value through non-linear regression analysis using GraphPad Prism version 8.1.1 for Windows (GraphPad Software, San Diego, CA, USA). The results represent the average of at least three independent experiments.

Compound | IC50 [1] | IC90 [1] | S.I. (selectivity index) [1] | IC50 [2] | IC50 [3] | IC90 [3] | inhibition at 10 µM [4] | CC50 at 72 h [5] | IC50 ([4]; THP-1 derived macrophages, 72 h, 95% CI in brackets, read-out: L. infantum (intracellular amastigotes) IC50 (μM), 95% CI)
O=C(Cc1ccc(C23CC4CC(CC(C4)C2)C3)cc1)NCCn1cnc([N+](=O)[O-])n1 [6b, 2-[4-(1-Adamantyl)phenyl]-N-[2-(3-nitro-1H-1,2,4-triazol-1-yl)ethyl]acetamide] | 420 ± 70 nM | 1800 ± 200 nM | 72 | 30000 ± 2000 nM | 200 ± 30 nM | 660 ± 40 nM | 50.1 ± 23% | 50000 to 100000 nM | 
O=C(Cc1ccc(C23CC4CC(CC(C4)C2)C3)cc1)NCCCn1cnc([N+](=O)[O-])n1 [6e, 2-[4-(1-Adamantyl)phenyl]-N-[3-(3-nitro-1H-1,2,4-triazol-1-yl)propyl]acetamide] | 240 ± 10 nM | 400 ± 10 nM | 96 | 23000 ± 3000 nM | 140 ± 10 nM | 270 ± 20 nM | 59.5 ± 12% | 50000 to 100000 nM | 6.93 µM
O=C(CCc1ccc(C23CC4CC(CC(C4)C2)C3)cc1)NCCn1cnc([N+](=O)[O-])n1 [6c, 3-[4-(1-Adamantyl)phenyl]-N-[2-(3-nitro-1H-1,2,4-triazol-1-yl)ethyl]propanamide] | 200 ± 20 nM | 320 ± 10 nM | 114 | 23000 ± 2000 nM | 450 ± 20 nM | 1200 ± 20 nM | 47.6 ± 16.3% | > 100000 nM | 
